From PMC3894558, “Chemical signatures and new drug targets for gametocytocidal drug development” (Scientific Reports, 2014)
Read-outs that look alike come from different tables or passages of the source.

System: P. falciparum 3D7 gametocytes
Assay: alamarBlue gametocyte viability assay, strain 3D7
Format: cell-based, Plasmodium falciparum
Settings: for Max Resp: DMSO set at 0%, 100 nM epoxomicin set at -100%; call rule not given here
[1] = Malaria Box, stages III-V 3D7 gametocytes
[2] = Malaria Box, stages III-V 3D7 gametocytes, 11 concentrations, 1:3 dilution, read-out: IC50
[3] = Malaria Box, stages III-V 3D7 gametocytes, 11 concentrations, 1:3 dilution

Structure (SMILES) | Max Resp (Malaria Box) [%] | Curve Class [1] | IC50 [2] [µM] | IC50 [3] | IC50 (Plasmodium falciparum, 3D7, Malaria Box, stages III-V 3D7 gametocytes, 11 concentrations, 1:3 dilution, read-out: IC50) [µM] | reduction of gametocyte viability (Malaria Box screen) [%] | IC50 (P. falciparum 3D7 gametocytes, mean of at least 3 independent experiments, read-out: Gametocyte IC50) [µM]
CCOc1cc2c(cc1OCC)C(c1cc(Cl)ccc1O)NCC2 (centres unmarked) [MMV000478] | -76 | -1.2 | 4.18 | – | – | – | –
O=C(NC1CCN(Cc2ccccc2)CC1)c1cc2nc(-c3ccc(Cl)s3)cc(C(F)(F)F)n2n1 [MMV396635] | -24 | 4 | – | Inactive | – | – | –
CCCc1c(C)nc2ccc(Br)cc2c1O [MMV666095] | 28 | 4 | – | Inactive | – | – | –
FC(F)(F)c1cccc(Nc2nc(-c3ccccc3)nc3ncccc23)c1 [MMV665798] | -7 | 4 | – | Inactive | – | – | –
O=C(NC1CCN(Cc2ccccc2)CC1)c1cc(C(=O)NC2CCN(Cc3ccccc3)CC2)cc(C(=O)NC2CCN(Cc3ccccc3)CC2)c1 [MMV019881] | -90 | -1.1 | 2.96 | – | – | – | –
COc1ccc(C=C2SC(Nc3ccc(F)cc3)=NC2=O)c(OC)c1 [MMV084434] | -24 | 4 | – | Inactive | – | – | –
CCOC(=O)c1cn(CC)c2cc(N(C)CCc3ccc(OC)c(OC)c3)c(F)cc2c1=O [MMV665977] | 2 | 4 | – | Inactive | – | – | –
COc1nc(Nc2ccc(C(C)C)cc2)nc(OC)n1 [MMV007808] | -9 | 4 | – | Inactive | – | – | –
CCN(CC)CCCNc1nc(-c2ccc(Cl)cc2)nc2ccccc12 [MMV665961] | -95 | -2.1 | 16.6 | – | – | – | –
Cc1ccc(Nc2nc(N)c3ccccc3n2)cc1Cl [MMV011522] | -73 | -2.2 | 14.8 | – | – | – | –
C=CC12CCN(CC1)C(C(O)c1ccnc3ccc(OC)cc13)C2.Cl (centres unmarked) [MMV665782] | -31 | -1.2 | 0.209 | – | – | – | –
O=c1c2c([nH]c3ccccc13)CCCC2 [MMV665843] | -7 | 4 | – | Inactive | – | – | –
CCN(CC)CCCNc1ccnc2cc3ccccc3cc12 [MMV665783] | -50 | -2.2 | – | Inactive | – | – | –
COc1ccc(N2CCN(C(CNC(=O)C3CCCCC3)c3ccc4c(c3)OCO4)CC2)cc1 (centres unmarked) [MMV019662] | -21 | 4 | – | Inactive | – | – | –
CN1CCN(c2ncnc3c2[nH]c2ccc(Cl)cc23)CC1 [MMV396704] | -57 | -2.2 | 37.2 | – | – | – | –
CCc1ccc(Nc2cc(C)nc3nc(C)nn23)cc1 [MMV007374] | -9 | 4 | – | Inactive | – | – | –
COc1ccc(CNC2CCN(c3ccc(NC(=O)c4cccc(Cl)c4)cc3)CC2)cc1OC [MMV666067] | -95 | -2.1 | 14.8 | – | – | – | –
COc1ccc(Nc2nc(NCc3ccccc3)c3ccccc3n2)cc1 [MMV000963] | -86 | -2.1 | 9.35 | – | – | – | –
CCn1c(CN2CCN(Cc3ccccc3)CC2)nc2cc(NC(=O)c3cccs3)ccc21 [MMV020439] | -25 | 4 | – | Inactive | – | – | –
CCCOCc1cc(CN2CCN(c3cccc(Cl)c3)CC2)c(O)c2ncccc12 [MMV000787] | -98 | -1.1 | 8.33 | – | – | – | –
Cc1c(C)n(CC(O)CNC2CCCCC2C)c2ccccc12 (centres unmarked) [MMV665806] | -89 | -1.1 | 3.32 | – | – | – | –
COc1ccc(C(O)(CCC(C)C)C(CN2CCOCC2)c2ccc(Cl)cc2)cc1.Cl (centres unmarked) [MMV000617] | -31 | -2.4 | – | Inactive | – | – | –
CCOC(=O)c1cn(CC)c2cc(N3CCCCC3)c(F)cc2c1=O [MMV665827] | 7 | 4 | – | Inactive | – | – | –
O=C(Nc1cccc(C2=NCCN2)c1)Nc1cccc(C2=NCCN2)c1 [MMV665810] | -78 | -2.2 | – | – | 18.7 | – | –

Structure (SMILES) | Max Resp (Malaria Box) [%] | Curve Class [1] | IC50 [2] [µM] | IC50 [3] | IC50 (Plasmodium falciparum, 3D7, Malaria Box, stages III-V 3D7 gametocytes, 11 concentrations, 1:3 dilution, read-out: IC50) [µM] | reduction of gametocyte viability (Malaria Box screen) [%] | IC50 (P. falciparum 3D7 gametocytes, mean of at least 3 independent experiments, read-out: Gametocyte IC50) [µM]
CCC(C)NCC(O)(c1ccc(Cl)cc1)c1ccc(Cl)cc1 (centres unmarked) [MMV665928] | -78 | -2.2 | 5.9 | – | – | – | –
Cc1ccc(Nc2nc(NCCO)c3ccccc3n2)cc1C [MMV001038] | -71 | -1.2 | 3.32 | – | – | – | –
CC1CCCCN1CCCNC(=O)c1ccc2c(c1)sc1nc(-c3ccc(F)cc3)cn12 (centres unmarked) [MMV000634] | -84 | -2.1 | 10.5 | – | – | – | –
Cc1cc(C)cc(Nc2cc(C)nc3nc(C(F)(F)F)nn23)c1 [MMV011259] | 4 | 4 | – | Inactive | – | – | –
CCC1(C)CC(CCNCc2ccccc2O)(c2ccc(C)cc2)CCO1 (centres unmarked) [MMV019406] | -82 | -1.1 | 0.418 | – | – | > 75 | < 1
COc1ccc2c(c1)C1(Nc3ccccc3-c3nc4ccccc4n31)C(=O)N2 (centres unmarked) [MMV396749] | -61 | -2.2 | 18.7 | – | – | – | –
O=c1nc(C=Cc2ccc(Cl)cc2)oc2ccccc12 [MMV007977] | 25 | 4 | – | Inactive | – | – | –
CCOc1ccc(CCNC(=O)c2cccs2)cc1OCC [MMV007978] | -13 | 4 | – | Inactive | – | – | –
COc1ccc(-c2nonc2NC(=O)c2cccc(Cl)c2)cc1OC [MMV020660] | -67 | -2.2 | 23.5 | – | – | – | –
CCOc1ccc(CN2CCN(CC(O)COc3ccc(OCC(O)CN4CCN(Cc5ccc(OCC)cc5)CC4)cc3)CC2)cc1 (centres unmarked) [MMV007092] | -94 | -1.1 | 7.43 | – | – | – | –
CCOc1ccc(-c2nonc2NC(=O)c2cccc(C)c2)cc1OCC [MMV665805] | -69 | -1.2 | 4.18 | – | – | – | –
Cl.N=c1n(CCN2CCCCC2)c2ccccc2n1CC(O)c1cccc(Br)c1 (centres unmarked) [MMV665902] | -99 | -1.1 | 3.72 | – | – | – | –
CC(C)(C)c1ccc(C(=O)Nc2c3c(nn2-c2cccc(Cl)c2)CSC3)cc1 [MMV666123] | -6 | 4 | – | Inactive | – | – | –
CCc1ccc(Nc2cc(C)c3ccc(O)cc3n2)cc1.Cl [MMV000570] | -29 | -1.2 | 0.469 | – | – | – | –
COc1ccc(/C=C2/SC(=Nc3ccccc3)NC2=O)cc1 [MMV665836] | 13 | 4 | – | Inactive | – | – | –
CN(C)CCNc1cc(-c2ccccc2)nc2ccccc12 [MMV006704] | -79 | -2.2 | 29.6 | – | – | – | –
COc1ccc(Nc2cc(C)nc(NCc3ccccc3)n2)cc1 [MMV006825] | -74 | -2.2 | 23.5 | – | – | – | –
CCOc1ccccc1NC(=O)CN1CCN(C(=O)c2ccco2)CC1 [MMV007791] | 1 | 4 | – | Inactive | – | – | –
CCN(CC)CCNc1ncnc2c1[nH]c1ccc(Br)cc12 [MMV305841] | -95 | -1.1 | 5.26 | – | – | – | –
c1ccc2cc3c(Nc4ccc(N5CCOCC5)cc4)ccnc3cc2c1 [MMV006861] | -63 | -2.2 | 18.7 | – | – | – | –
CC1(c2ccccc2)Nc2ccccc2-c2nc3ccccc3n21 (centres unmarked) [MMV396715] | -84 | -2.1 | 16.6 | – | – | – | –
O=C(NC(c1ccccc1)c1ccc2cccnc2c1O)c1ccccc1 (centres unmarked) [MMV666080] | -75 | -2.2 | 9.35 | – | – | – | –
CSc1ccccc1C(=O)Nc1nc(-c2ccccn2)cs1 [MMV001246] | -72 | -2.2 | 11.8 | – | – | – | –
